Reference: PubChem BioAssay AID330 (DTP/NCI, 2004)
Several values for one entry are separate records, joined by “and”; a condition that tells them apart may be missing. Identical values can stand only once. Inconclusive results and toxic doses are left out.

System: P388 leukemia ip, CD2F1 mice, survival T/C
Experiment: NCI In Vivo Anticancer Drug Screen. Data for tumor model P388 Leukemia (intraperitoneal) in CD2F1 (CDF1) mice
Conditions: endpoint: median survival time, higher = longer survival
In short: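 Mice carrying the transplanted tumor received test compound or vehicle. Survival was recorded in each group, and the value is the treated-group measurement divided by that of the vehicle-treated control group.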

[1] = dose: 50.0 mg/kg/injection, schedule: Q01DX009 (ip), vehicle: Klucel (hydroxypropylcellulose) (HPC)
[2] = dose: 50.0 mg/kg/injection, schedule: Q01DX005 (ip), vehicle: Klucel (hydroxypropylcellulose) (HPC)
[3] = dose: 100.0 mg/kg/injection, schedule: Q01DX005 (ip), vehicle: Klucel (hydroxypropylcellulose) (HPC)
[4] = dose: 200.0 mg/kg/injection, schedule: Q01DX005 (ip), vehicle: Klucel (hydroxypropylcellulose) (HPC)
[5] = dose: 50.0 mg/kg/injection, schedule: Q01DX009 (ip), vehicle: saline
[6] = dose: 100.0 mg/kg/injection, schedule: Q01DX009 (ip), vehicle: saline
[7] = dose: 200.0 mg/kg/injection, schedule: Q01DX009 (ip), vehicle: saline
[8] = dose: 100.0 mg/kg/injection, schedule: Q01DX001 (ip), vehicle: Klucel (hydroxypropylcellulose) (HPC)
[9] = dose: 200.0 mg/kg/injection, schedule: Q01DX001 (ip), vehicle: Klucel (hydroxypropylcellulose) (HPC)
[10] = dose: 6.25 mg/kg/injection, schedule: Q01DX005 (ip), vehicle: saline with Tween-80
[11] = dose: 12.5 mg/kg/injection, schedule: Q01DX005 (ip), vehicle: saline with Tween-80
[12] = dose: 25.0 mg/kg/injection, schedule: Q01DX005 (ip), vehicle: saline with Tween-80
[13] = dose: 25.0 mg/kg/injection, schedule: Q01DX009 (ip), vehicle: saline with Tween-80

How did the T/C (dose: 1:2.0 dilution, schedule: Q01DX001 (ip), vehicle: none) turn out when `O=C=C=O` was run?
Its T/C is 102 % of control.

What about the T/C (dose: 1:4.0 dilution, schedule: Q01DX001 (ip), vehicle: none) of the same compound?
Its T/C is 104 % of control.

And the T/C (dose: 1:8.0 dilution, schedule: Q01DX001 (ip), vehicle: none)?
The T/C was 99 % of control.

With `CCOC(=O)C1Nc2ccc(Br)cc2C(C(=O)OCC)N1c1ccc(Br)cc1` (stereo unspecified) as the compound, how does the T/C [1] read?
Its T/C is 102 % of control.

What about the T/C (dose: 100.0 mg/kg/injection, schedule: Q01DX009 (ip), vehicle: Klucel (hydroxypropylcellulose) (HPC)) of the same compound?
The T/C was 102 % of control.

And the T/C (dose: 200.0 mg/kg/injection, schedule: Q01DX009 (ip), vehicle: Klucel (hydroxypropylcellulose) (HPC))?
Its T/C is 94 % of control.

Which results are given for `O=C(NCCO)Nc1ccccc1F`?
T/C (dose: 100.0 mg/kg/injection, schedule: Q04DX003 (ip), vehicle: saline): 100 % of control; T/C (dose: 200.0 mg/kg/injection, schedule: Q04DX003 (ip), vehicle: saline): 95 % of control; T/C (dose: 400.0 mg/kg/injection, schedule: Q04DX003 (ip), vehicle: saline): 104 % of control

For `O=CNC(Cc1ccccc1N(CCCl)CCCl)C(=O)O` (stereo unspecified), which T/C (dose: 5.0 mg/kg/injection, schedule: Q04DX003 (ip), vehicle: other) is on record?
The T/C was 198 % of control.

And the T/C (dose: 5.0 mg/kg/injection, schedule: Q04DX003 (ip), vehicle: water)?
Its T/C is 154 % of control.

What about the T/C (dose: 10.0 mg/kg/injection, schedule: Q04DX003 (ip), vehicle: other) of the same compound?
Its T/C is 261 % of control.

What about the T/C (dose: 10.0 mg/kg/injection, schedule: Q04DX003 (ip), vehicle: water) of the same compound?
Its T/C is 187 % of control.

And the T/C (dose: 20.0 mg/kg/injection, schedule: Q04DX003 (ip), vehicle: other)?
Its T/C is 293 % of control.

What about the T/C (dose: 20.0 mg/kg/injection, schedule: Q04DX003 (ip), vehicle: water) of the same compound?
The T/C was 309 % of control.

And the T/C (dose: 40.0 mg/kg/injection, schedule: Q04DX003 (ip), vehicle: water)?
Its T/C is 113 % of control.

`CS(=O)(=O)/C=C/COC(=O)/C=C/c1ccccc1` was tested. Which T/C (dose: 25.0 mg/kg/injection, schedule: Q01DX005 (ip), vehicle: Klucel (hydroxypropylcellulose) (HPC)) did it give?
Its T/C is 102 % of control.

And the T/C [2]?
Its T/C is 102 % of control.

And the T/C [3]?
The T/C was 100 % of control.

And the T/C [4]?
The T/C was 102 % of control.

`COc1ccc(-c2nc(SCC(=O)O)n(-c3ccccn3)c2-c2ccc(OC)cc2)cc1` was tested. Which T/C (dose: 100.0 mg/kg/injection, schedule: Q01DX001 (ip), vehicle: water) did it give?
Its T/C is 100 % of control.

And the T/C (dose: 200.0 mg/kg/injection, schedule: Q01DX001 (ip), vehicle: water)?
Its T/C is 91 % of control.

Which results are given for `S=C(Nc1ccc2c(c1)OCO2)SCc1ccc(Cl)c(Cl)c1`?
T/C (dose: 12.5 mg/kg/injection, schedule: Q01DX009 (ip), vehicle: Klucel (hydroxypropylcellulose) (HPC)): 91 % of control; T/C (dose: 25.0 mg/kg/injection, schedule: Q01DX009 (ip), vehicle: Klucel (hydroxypropylcellulose) (HPC)): 105 % of control; T/C [1]: 107 % of control; T/C [5]: 106 % of control; T/C (dose: 50.0 mg/kg/injection, schedule: Q01DX009 (ip), vehicle: suspension in saline): 103 % of control; T/C [6]: 108 % of control; T/C (dose: 100.0 mg/kg/injection, schedule: Q01DX009 (ip), vehicle: suspension in saline): 93 % of control; T/C [7]: 118 % of control; T/C (dose: 200.0 mg/kg/injection, schedule: Q01DX009 (ip), vehicle: suspension in saline): 98 % of control

Which T/C (dose: 25.0 mg/kg/injection, schedule: Q01DX001 (ip), vehicle: saline) does the source give for `C#CCC(B1OCCO1)B1OCCO1` here?
Its T/C is 100 % of control.

And the T/C (dose: 50.0 mg/kg/injection, schedule: Q01DX001 (ip), vehicle: saline)?
Its T/C is 90 % of control.

Which T/C (dose: 0.79 mg/kg/injection, schedule: Q01DX005 (ip), vehicle: Klucel (hydroxypropylcellulose) (HPC)) does the source give for `O=P(CCP(=O)(c1ccccc1)c1ccccc1)(c1ccccc1)c1ccccc1.[Cl][Sn]([Cl])([c]1ccccc1)[c]1ccccc1` here?
The T/C was 116 % of control and 117 % of control.

What about the T/C (dose: 1.56 mg/kg/injection, schedule: Q01DX005 (ip), vehicle: Klucel (hydroxypropylcellulose) (HPC)) of the same compound?
The T/C was 114 % of control and 119 % of control.

And the T/C (dose: 3.12 mg/kg/injection, schedule: Q01DX005 (ip), vehicle: Klucel (hydroxypropylcellulose) (HPC))?
Its T/C is 111 % of control and 119 % of control.

What about the T/C (dose: 6.25 mg/kg/injection, schedule: Q01DX005 (ip), vehicle: Klucel (hydroxypropylcellulose) (HPC)) of the same compound?
Its T/C is 113 % of control.

With `COC(=O)C1=C(OC(C)=O)c2ccccc2CS1` as the compound, how does the T/C (dose: 50.0 mg/kg/injection, schedule: Q01DX001 (ip), vehicle: Klucel (hydroxypropylcellulose) (HPC)) read?
Its T/C is 98 % of control.

What about the T/C [8] of the same compound?
The T/C was 92 % of control.

What about the T/C [9] of the same compound?
Its T/C is 96 % of control.

What does the source list for `CNc1ncnc2c1ccn2C1OC(CO)C(O)C1O` (stereo unspecified)?
T/C [10]: 100 % of control; T/C [11]: 108 % of control; T/C [12]: 100 % of control

For `C(=N\Nc1nc2ccccc2s1)/c1cccs1`, which T/C [5] is on record?
The T/C was 100 % of control.

What about the T/C [6] of the same compound?
Its T/C is 87 % of control.

What about the T/C [7] of the same compound?
The T/C was 106 % of control.

For `N#CCc1csc2ccccc12`, which T/C [2] is on record?
Its T/C is 117 % of control.

What about the T/C [3] of the same compound?
The T/C was 115 % of control.

What about the T/C [4] of the same compound?
Its T/C is 112 % of control.

Which T/C [8] does the source give for `C(=C1CC(=Cc2ccccc2)C1)c1ccccc1` here?
Its T/C is 94 % of control.

What about the T/C [9] of the same compound?
Its T/C is 88 % of control.

What about the T/C (dose: 400.0 mg/kg/injection, schedule: Q01DX001 (ip), vehicle: Klucel (hydroxypropylcellulose) (HPC)) of the same compound?
The T/C was 88 % of control.

Which results are given for `CN(C)c1ccc(C2(c3ccccc3)NNC(=O)c3ccccc32)cc1` (stereo unspecified)?
T/C [11]: 92 % of control; T/C [12]: 88 % of control; T/C (dose: 50.0 mg/kg/injection, schedule: Q01DX005 (ip), vehicle: saline with Tween-80): 88 % of control; T/C (dose: 200.0 mg/kg/injection, schedule: Q01DX005 (ip), vehicle: saline with Tween-80): 86 % of control

For `COc1ccc2[nH]c3c(C)c4cc[n+](C)c(C)c4cc3c2c1`, which T/C (dose: 1.56 mg/kg/injection, schedule: Q04DX002 (ip), vehicle: water) is on record?
Its T/C is 97 % of control.

What about the T/C (dose: 3.12 mg/kg/injection, schedule: Q04DX002 (ip), vehicle: water) of the same compound?
Its T/C is 104 % of control.

What about the T/C (dose: 6.25 mg/kg/injection, schedule: Q04DX002 (ip), vehicle: water) of the same compound?
The T/C was 107 % of control.

And the T/C (dose: 10.0 mg/kg/injection, schedule: Q04DX002 (ip), vehicle: water)?
Its T/C is 200 % of control.

What about the T/C (dose: 12.5 mg/kg/injection, schedule: Q04DX002 (ip), vehicle: water) of the same compound?
The T/C was 113 % of control.

And the T/C (dose: 20.0 mg/kg/injection, schedule: Q04DX002 (ip), vehicle: water)?
The T/C was 115 % of control.

And the T/C (dose: 25.0 mg/kg/injection, schedule: Q04DX002 (ip), vehicle: water)?
Its T/C is 117 % of control.

And the T/C (dose: 40.0 mg/kg/injection, schedule: Q04DX002 (ip), vehicle: water)?
Its T/C is 112 % of control.

And the T/C (dose: 50.0 mg/kg/injection, schedule: Q04DX002 (ip), vehicle: water)?
The T/C was 123 % of control.

How did the T/C [10] turn out when `CN(C)CC/C=C1/c2ccccc2Sc2ccc(Cl)cc21` was run?
The T/C was 104 % of control.

And the T/C [11]?
Its T/C is 111 % of control.

What does the source list for `Cn1cnc2cc(N3CCCCC3)c(Nc3ccc([N+](=O)[O-])cc3[N+](=O)[O-])cc2c1=O`?
T/C (dose: 100.0 mg/kg/injection, schedule: Q04DX003 (ip), vehicle: Klucel (hydroxypropylcellulose) (HPC)): 103 % of control; T/C (dose: 200.0 mg/kg/injection, schedule: Q04DX003 (ip), vehicle: Klucel (hydroxypropylcellulose) (HPC)): 98 % of control; T/C (dose: 400.0 mg/kg/injection, schedule: Q04DX003 (ip), vehicle: Klucel (hydroxypropylcellulose) (HPC)): 95 % of control

With `CCOC(=O)c1cn(C)c2c1C(=O)C(C(=O)OCC)CC(=O)N2` (stereo unspecified) as the compound, how does the T/C (dose: 50.0 mg/kg/injection, schedule: Q01DX005 (ip), vehicle: saline + Tween-80 + alcohol) read?
The T/C was 94 % of control.

What about the T/C (dose: 100.0 mg/kg/injection, schedule: Q01DX005 (ip), vehicle: saline + Tween-80 + alcohol) of the same compound?
The T/C was 99 % of control.

What about the T/C (dose: 200.0 mg/kg/injection, schedule: Q01DX005 (ip), vehicle: saline + Tween-80 + alcohol) of the same compound?
The T/C was 101 % of control.

`COc1cccc(C2CC(C)(O)Oc3cc4c(cc32)OCO4)c1` (stereo unspecified) was tested. Which T/C (dose: 60.0 mg/kg/injection, schedule: Q01DX005 (ip), vehicle: Klucel (hydroxypropylcellulose) (HPC)) did it give?
Its T/C is 93 % of control.

With `O=S(Nc1ccccc1)Nc1ccccc1` as the compound, how does the T/C [13] read?
The T/C was 100 % of control.

What about the T/C (dose: 50.0 mg/kg/injection, schedule: Q01DX009 (ip), vehicle: saline with Tween-80) of the same compound?
The T/C was 100 % of control.

And the T/C (dose: 100.0 mg/kg/injection, schedule: Q01DX009 (ip), vehicle: saline with Tween-80)?
Its T/C is 90 % of control.

For `Cc1c2oc3c(C)ccc(C(=O)OCCN4CCOCC4)c3nc-2c(C(=O)OCCN2CCOCC2)c(N)c1=O`, which T/C (dose: 3.13 mg/kg/injection, schedule: Q01DX009 (ip), vehicle: saline with Tween-80) is on record?
Its T/C is 112 % of control.

What about the T/C (dose: 6.25 mg/kg/injection, schedule: Q01DX009 (ip), vehicle: saline with Tween-80) of the same compound?
The T/C was 110 % of control.

What about the T/C (dose: 12.5 mg/kg/injection, schedule: Q01DX009 (ip), vehicle: saline with Tween-80) of the same compound?
Its T/C is 119 % of control.

And the T/C [13]?
Its T/C is 111 % of control.
